These results are taken from the supplement of paper PMC3974653.

Counter-ions that a name gives are not always drawn.

This assay deals with MTT (mouse pheochromocytoma). As to the kind of experiment: IC50 of cell viability (ATP content). Particulars: (24 or 48 h). Put shortly: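 The IC50 was fitted with a four-parameter logistic equation to normalised CellTiter-Glo ATP luminescence from MTT mouse pheochromocytoma cells. These cells, in white 1536-well plates, had been treated for 24 or 48 hrs with library compounds at 8 final concentrations between 0.5 nM and 46 µM, and luminescence was read after 15 minutes. Positive-control wells served as 100% and DMSO wells as 0%.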
Turning to `Cc1cc(CC(=O)[O-])n(C)c1C(=O)c1ccc(Cl)cc1` [Sodium zomepirac], the “IC50 of cell viability” value was greater than 46 µM.

Consider `CC(C)=CCOc1ccc(/C=C/C(=O)c2ccc(OCC=C(C)C)cc2OCC(=O)O)cc1` [Sofalcone], for which the “IC50 of cell viability” value was greater than 46 µM.

In the case of `CN(C)[C@@H]\1[C@H]2C[C@H]3\C(=C(\O)[C@@]2(O)C(=O)\C(=C1O)C(=O)NCN4CCCC4)C(=O)C5=C(C=CC=C5O)[C@]3(C)O` [Solvocillin], the “IC50 of cell viability” value was greater than 46 µM.

In the case of `C/C=C/C=C/C(=O)O` [Sorbic acid], the “IC50 of cell viability” value is greater than 46 µM.

Take `O=C1NC(=O)[C@@]2(CCOc3ccc(F)cc32)N1` [Sorbinil]: the “IC50 of cell viability” value is greater than 46 µM.

Regarding `CCCCCCCCCCCCCCCCCC(=O)OC[C@@H](O)[C@H]1OC[C@H](O)[C@H]1O` [Sorbitan monostearate], the “IC50 of cell viability” value was greater than 46 µM.

As for `CCCCCCCC/C=C\CCCCCCCC(=O)OC[C@@H](O)[C@H]1OC[C@H](O)[C@H]1O` [Sorbitan, mono-(9Z)-9-octadecenoate], the “IC50 of cell viability” value is greater than 46 µM.

Turning to `C1CC[N@]2C[C@@H]3C[C@@H](CN4CCCC[C@H]34)[C@H]2C1` [Sparteine (-)], the “IC50 of cell viability” value is greater than 46 µM.

Turning to `CN[C@H]1[C@@H](O)[C@@H](NC)[C@@H]2O[C@]3(O)C(=O)C[C@@H](C)O[C@H]3O[C@H]2[C@H]1O` [Spectinomycin dihydrochloride], the “IC50 of cell viability” value was greater than 46 µM.

Turning to `CO[C@H]1[C@@H](O[C@@H]2O[C@@H](C)[C@@H](O[C@H]3C[C@](C)(O)[C@H](O)[C@H](C)O3)[C@@H](N(C)C)[C@H]2O)[C@H](CC=O)C[C@@H](C)[C@@H](O[C@H]2CC[C@H](N(C)C)[C@H](C)O2)/C=C\C=C/C[C@@H](C)OC(=O)C[C@H]1O` [Spiramycin], the “IC50 of cell viability” value was greater than 46 µM.

With `CCOC(=O)[C@H](CCc1ccccc1)NC(C)C(=O)N1CC2(CC1C(=O)O)SCCS2` (some centres undefined) [Spirapril], the “IC50 of cell viability” value was greater than 46 µM.

As to `CC(=O)SC1C\C2=C\C(=O)CCC2(C)C3CCC4(C)C(CCC45CCC(=O)O5)C13` (centres undefined) [Spironolactone], the “IC50 of cell viability” value is greater than 46 µM.

As to `OC(=O)CC/1=N/N(CC2=CC=C(Br)C=C2F)C(=O)C3=CC=CC=C13` [Statil], the “IC50 of cell viability” value was greater than 46 µM.

`CCCCCCCCCCCCCCCCCC(=O)O` [Stearic acid]: the “IC50 of cell viability” value was greater than 46 µM.

With `CC(C)(C)C(O)C=Cc1ccc2c(c1)OCO2` (centres undefined) [Stiripentol], the “IC50 of cell viability” value is greater than 46 µM.

With `CN[C@@H]1[C@H](O[C@H]2[C@H](O[C@H]3[C@H](O)[C@@H](O)[C@H](NC(=N)N)[C@@H](O)[C@@H]3NC(=N)N)O[C@@H](C)[C@]2(O)C=O)O[C@@H](CO)[C@H](O)[C@H]1O` [Streptomycin sulfate], the “IC50 of cell viability” value is greater than 46 µM.

As to `CN(N=O)C(=O)N[C@H]1[C@H](O)[C@H](O)[C@H](CO)O[C@@H]1O` [Streptozotocin], the “IC50 of cell viability” value was greater than 46 µM.

As to `C=Cc1ccccc1` [Styrene], the “IC50 of cell viability” value is greater than 46 µM.

For `C[N+](C)(C)CCOC(=O)CCC(=O)OCC[N+](C)(C)C.[Cl-].[Cl-]` [Succinylcholine chloride], the “IC50 of cell viability” value is greater than 46 µM.

`O=C(O)CCC(=O)Nc1ccc([S+](=O)([O-])Nc2nccs2)cc1` [Succinylsulfathiazole]: the “IC50 of cell viability” value was greater than 46 µM.

As to `OC[C@@H]1O[C@@](CO)(OC2O[C@H](CO)[C@@H](O)[C@H](O)[C@@H]2O)[C@@H](O)[C@@H]1O` (some centres undefined) [Sucralox], the “IC50 of cell viability” value was greater than 46 µM.

In the case of `O=S(=O)([O-])OCC1OC(OC2(COS(=O)(=O)[O-])OC(COS(=O)(=O)[O-])C(OS(=O)(=O)[O-])C2OS(=O)(=O)[O-])C(OS(=O)(=O)[O-])C(OS(=O)(=O)[O-])C1OS(=O)(=O)[O-]` (centres undefined) [Sucrose Octasulfate, Sodium Salt], the “IC50 of cell viability” value was greater than 46 µM.

As to `CN1C(=S)CN=C(c2ccccc2)c2cc(Cl)ccc21` [Sulazepam], the “IC50 of cell viability” value was greater than 46 µM.

Take `CC1(C)C(C(=O)[O-])N2C(=O)CC2[S+]1(=O)[O-]` (centres undefined) [Sulbactam]: the “IC50 of cell viability” value was greater than 46 µM.

For `S=C1SCN(Cc2ccccc2)CN1Cc1ccccc1` [Sulbentina], the “IC50 of cell viability” value was greater than 46 µM.

Consider `CCOC(=O)c1ccc(NC(=O)CN2CCCCC2)cc1` [Sulcaine], for which the “IC50 of cell viability” value is greater than 46 µM.

`Clc1ccc(CS[C@@H](Cn2ccnc2)c2ccc(Cl)cc2Cl)cc1` [Sulconazole nitrate]: the “IC50 of cell viability” value is greater than 46 µM.

With `Nc1ccc([S+](=O)([O-])Nc2ccccc2)cc1` [Sulfabenz], the “IC50 of cell viability” value was greater than 46 µM.

Take `Nc1ccc([S+](=O)([O-])NC(=O)c2ccccc2)cc1` [Sulfabenzamide]: the “IC50 of cell viability” value is greater than 46 µM.

Turning to `CC(=O)N[S+](=O)([O-])c1ccc(N)cc1` [Sulfacetamide], the “IC50 of cell viability” value is greater than 46 µM.

Turning to `Nc1ccc([S+](=O)([O-])Nc2ccc(Cl)nn2)cc1` [Sulfachloropyridazine], the “IC50 of cell viability” value is greater than 46 µM.

`Nc1ccc([S+](=O)([O-])Nc2ncccn2)cc1` [Sulfadiazine]: the “IC50 of cell viability” value is greater than 46 µM.

In the case of `COc1cc(N[S+](=O)([O-])c2ccc(N)cc2)nc(OC)n1` [Sulfadimethoxine], the “IC50 of cell viability” value is greater than 46 µM.

On to `COc1ncnc(N[S+](=O)([O-])c2ccc(N)cc2)c1OC` [Sulfadoxine], for which the “IC50 of cell viability” value is greater than 46 µM.

`CCc1nnc(N[S+](=O)([O-])c2ccc(N)cc2)s1` [Sulfaethidole]: the “IC50 of cell viability” value is greater than 46 µM.

On to `CCOc1ccc(N[S+](=O)([O-])c2ccc(N)cc2)nn1` [Sulfaethoxypyridazine], for which the “IC50 of cell viability” value is greater than 46 µM.

Consider `NC(N)=N[S+](=O)([O-])c1ccc(N)cc1` [Sulfaguanidine], for which the “IC50 of cell viability” value was greater than 46 µM.

For `COc1nccnc1N[S+](=O)([O-])c1ccc(N)cc1` [Sulfalene], the “IC50 of cell viability” value was greater than 46 µM.

For `Cc1ccnc(N[S+](=O)([O-])c2ccc(N)cc2)n1` [Sulfamerazine], the “IC50 of cell viability” value is greater than 46 µM.

For the compound `COc1cnc(N[S+](=O)([O-])c2ccc(N)cc2)nc1` [Sulfameter], the “IC50 of cell viability” value was greater than 46 µM.

Consider `Cc1cc(C)nc(N[S+](=O)([O-])c2ccc(N)cc2)n1` [Sulfamethazine], for which the “IC50 of cell viability” value was greater than 46 µM.

`Cc1nnc(N[S+](=O)([O-])c2ccc(N)cc2)s1` [Sulfamethizole]: the “IC50 of cell viability” value was greater than 46 µM.

As to `Cc1cc(N[S+](=O)([O-])c2ccc(N)cc2)no1` [Sulfamethoxazole], the “IC50 of cell viability” value is greater than 46 µM.

As for `COc1ccc(N[S+](=O)([O-])c2ccc(N)cc2)nn1` [Sulfamethoxypyridazine], the “IC50 of cell viability” value was greater than 46 µM.

Take `COc1cc(N[S+](=O)([O-])c2ccc(N)cc2)ncn1` [Sulfamonomethoxine]: the “IC50 of cell viability” value is greater than 46 µM.

Turning to `Nc1ccc([S+](N)(=O)[O-])cc1` [Sulfanilamide], the “IC50 of cell viability” value is greater than 46 µM.

With `Nc1ccc([S+](=O)([O-])Nc2ccnn2-c2ccccc2)cc1` [Sulfaphenazole], the “IC50 of cell viability” value is greater than 46 µM.

In the case of `Nc1ccc([S+](=O)([O-])Nc2ccccn2)cc1` [Sulfapyridine], the “IC50 of cell viability” value was greater than 46 µM.

Take `Nc1ccc([S+](=O)([O-])Nc2nccs2)cc1` [Sulfathiazole]: the “IC50 of cell viability” value is greater than 46 µM.

With `O=C1C(CC[S+]([O-])c2ccccc2)C(=O)N(c2ccccc2)N1c1ccccc1` (centres undefined) [Sulfinpyrazone], the “IC50 of cell viability” value is greater than 46 µM.

For `Cc1cc(NS(=O)(=O)c2ccc(N)cc2)nc(C)n1` [Sulfisomidine], the “IC50 of cell viability” value was greater than 46 µM.

Regarding `Cc1noc(N[S+](=O)([O-])c2ccc(N)cc2)c1C` [Sulfisoxazole diolamine], the “IC50 of cell viability” value is greater than 46 µM.

For the compound `Cc1noc(N[S+](=O)([O-])c2ccc(N)cc2)c1C` [Sulfisoxazole], the “IC50 of cell viability” value is greater than 46 µM.

On to `CSc1ccc(/C=C2/C(C)=C(CC(=O)O)c3cc(F)ccc32)cc1` [Sulindac sulfide], for which the “IC50 of cell viability” value was greater than 46 µM.

Consider `CC1=C(CC(=O)O)c2cc(F)ccc2/C1=C\c1ccc([S+](C)(=O)[O-])cc1` [Sulindac sulfone], for which the “IC50 of cell viability” value was greater than 46 µM.

Turning to `CC1=C(CC(=O)O)c2cc(F)ccc2/C1=C\c1ccc([S+](C)[O-])cc1` (centres undefined) [Sulindac], the “IC50 of cell viability” value was greater than 46 µM.

As for `COc1cc(O)c(C(=O)c2ccccc2)cc1[S+](=O)([O-])O` [Sulisobenzone], the “IC50 of cell viability” value was greater than 46 µM.

Take `CS(=O)(=O)NC(=O)CCC/C=C\C[C@H]1C(=O)C[C@@H](O)[C@@H]1/C=C/[C@@H](O)COc1ccccc1` [Sulprostone]: the “IC50 of cell viability” value is greater than 46 µM.

Consider `CC1(C)S[C@@H]2[C@H](NC(=O)[C@H](N)c3ccccc3)C(=O)N2[C@@H]1C(=O)OCOC(=O)[C@@H]1N2C(=O)C[C@@H]2S([O-])([O-])C1(C)C` [Sultamicillin tosylate], for which the “IC50 of cell viability” value is greater than 46 µM.

As for `CCN1CCCC1CNC(=O)c1cc([S+](=O)([O-])CC)ccc1OC` (centres undefined) [Sultopride Hydrochloride], the “IC50 of cell viability” value was greater than 46 µM.

For `CCN1CCC[C@@H]1CNC(=O)c1cc([S+](=O)([O-])CC)ccc1OC` [Sultopride Hydrochloride], the “IC50 of cell viability” value was greater than 46 µM.

Turning to `CCN(CC)CCNC(=O)c1c(C)[nH]c(/C=C2\C(=O)Nc3ccc(F)cc32)c1C` [Sunitinib malate], the “IC50 of cell viability” value was greater than 46 µM.

For `C[C@@H](C(=O)O)c1ccc(C(=O)c2cccs2)cc1` [Suprofen], the “IC50 of cell viability” value was greater than 46 µM.

As to `CCCCC1(COC(=O)CCC(=O)O)C(=O)N(c2ccccc2)N(c2ccccc2)C1=O` [Suxibuzone], the “IC50 of cell viability” value is greater than 46 µM.
